This assay deals with T1, EcCurA (E. coli curcumin reductase, double bond reductase) (Escherichia coli, UniProt P76113).
T1 construct: gene curA
T1 sequence (P76113 1-345): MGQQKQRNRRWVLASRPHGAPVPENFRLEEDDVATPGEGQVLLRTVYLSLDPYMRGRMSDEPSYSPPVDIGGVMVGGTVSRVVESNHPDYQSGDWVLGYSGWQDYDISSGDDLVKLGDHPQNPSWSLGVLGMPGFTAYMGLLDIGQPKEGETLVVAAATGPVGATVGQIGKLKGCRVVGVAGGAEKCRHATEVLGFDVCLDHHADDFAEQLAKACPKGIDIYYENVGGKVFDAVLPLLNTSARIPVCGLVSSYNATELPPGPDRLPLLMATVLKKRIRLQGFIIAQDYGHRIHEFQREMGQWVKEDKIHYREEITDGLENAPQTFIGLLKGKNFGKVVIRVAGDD
Kind of assay: fluorescence titration. The class given is binding.

By Kd is commonly meant the equilibrium constant for the complex coming apart. Regarding `COc1cc(/C=C/C(=O)CC(=O)/C=C/c2ccc(O)c(OC)c2)ccc1O` [curcumin], the Kd came out at 8.39 µM.
